Here are results for one compound from patent US20190070140A1, “COMPOSITION COMPRISING PROTECTIN DX AS ACTIVE INGREDIENT FOR PREVENTING OR TREATING HYPERLIPIDEMIA OR FATTY LIVER DISEASE” (Solvit P&F, priority 2017, published 2019).

The subject of one test is adiponectin. As to the kind of experiment: Adiponectin level in blood serum of HFD mice. Type of test: in vivo, mouse. The note with it: PDX i.p. 1 μg/mice/day for 8 weeks, FIG. 5E. Here is the method: The present study has received the approval of the Institutional Animal Review Committee (Institutional Animal Care and Use Committee in Korea University, Seoul, Korea). The animal experiment was conducted according to the Guide for Care and Use of Laboratory Animals (NH publication, 8th Ed., 2011). A control group and a group of male C57BL/6J(B6) mice at 8 weeks of age were subjected to a normal diet (ND, Brogaarden, Gentofte, Denmark) and a high fat diet (HFD, Research Diets, New Brunswick, N.J., USA) for 8 weeks, respectively. The HFD (high fat diet) group was provided with intra-peritoneal injection of PDX for 8 weeks (1 μg/mice/day). An ethanol injection group was used as a control group.

For test [1], the system named is SREBP1, FAS and SCD1. As to the kind of experiment: Western-blot assay of adipogenesis-related genes in palmitate-treated HepG2 cells. Type of test: cell-based, Human. The procedure:
(§1) Human liver cells, that is, HepG2 cells (ATCC, Manassas, Va., USA) were cultured in high-glucose Dulbecco's modified eagle medium (DMEM, Invitrogen, Carlsbad, Calif., USA), which includes 10% fetal bovine serum (FBS, Invitrogen), 100 units/mL of penicillin and 100 μg/ml of streptomycin. The cells were incubated at 37° C. under a condition of 5% CO2.
(§2) Mycoplasma was not detected in HepG2 cells. PDX (Cayman Chemical, Ann Arbor, Mich., USA) was dissolved in ethanol. Sodium palmitate (Sigma, St. Louis, Mo., USA) was mixed with 2% BSA (fatty acid free level; Sigma) in DMEM. […] In all experiments, the cells were treated with palmitate-BSA and PDX for 24 hours, while 2% BSA-ethanol was used as a control group.
After collecting HepG2 cells, protein was extracted from the cells with a buffer (PRO-PREF; Intron Biotechnology, Seoul, Korea) at 4° C. for 1 hour. A protein sample (35 μg) was applied to 12% SDS-PAGE, transferred to a nitrocellulose film (Amersham Bioscience, Westborough, Mass., USA), detected with a primary antibody, followed by probing with a secondary antibody and another secondary antibody conjugated with horseradish […] (Santa Cruz Biotechnology). The sample was detected by ECL kit.
Under 70% comfluency, 0 to 20 nmol/L […] (si)RNA oligonucleotide to ORP150 purchased from Santa Cruz Biotechnology was transfected to inhibit gene expression. Scramble siRNA was used as a control group. 2 or 4 μg of pCMV3-ORP150 (Sino Biological, Beijing, China) was transiently transfected, leading to over-expression of ORP150. pCMV3 empty-vector was used as a control group. According to instruction of the manufacturer, transfection was executed using lipofectamine 2000 (Invitrogen).
The present inventors have executed western-blot assay of SREBP1 expression in HepG2 cells that were treated with 200 μM palmitate and/or with 0 to 4 μg of ORP150 for 24 hours.

The next test relates to HepG2 cells. The test is described as follows: Palmitate-induced TG accumulation in HepG2 cells, Oil-Red-O staining with isopropyl alcohol extraction. Type of test: cell-based, Human. Here is the method:
as §1, §2
HepG2 cells and a cut section of the liver in a mouse were stained by Oil-Red-O staining method, in order to determine cellular triglyceride such as triglyceride, that is, TG. The liver cells were fixed with 10% formalin for 40 minutes, and then stained with Oil-Red-O solution (Sigma) at 37° C. for 1 hour. A content of Oil-Red-O stained TG was quantified by adding isopropanol to each of the samples. The mixture was gently stirred at 25° C. for 8 minutes. Lastly, 100 μl of isopropanol-extracted sample was analyzed by a spectrophotometer at 510 nm.
In the presence of 200 μM palmitate and PDX (0 to 2 μm), HepG2 cells were subjected to Oil-Red-O staining for 24 hours, while TG accumulation was quantified by isopropyl alcohol extraction.
Further, the present inventors have executed Oil-Red-O staining with respect to palmitate-treated HepG2 cells for 24 hours. TG accumulation was quantified by extraction using isopropyl alcohol.

The next test concerns IRE-1, eIF2α and CHOP. As to the kind of experiment: Western-blot assay of ER stress markers in livers of HFD mice. Type of test: in vivo, mouse. The following applies: PDX i.p. 1 μg/mice/day for 8 weeks, FIG. 5C. Here is the method:
(§3) The present study has received the approval of the Institutional Animal Review Committee (Institutional Animal Care and Use Committee in Korea University, Seoul, Korea). The animal experiment was conducted according to the Guide for Care and Use of Laboratory Animals (NH publication, 8th Ed., 2011). A control group and a group of male C57BL/6J(B6) mice at 8 weeks of age were subjected to a normal diet (ND, Brogaarden, Gentofte, Denmark) and a high fat diet (HFD, Research Diets, New Brunswick, N.J., USA) for 8 weeks, respectively. The HFD (high fat diet) group was provided with intra-peritoneal injection of PDX for 8 weeks (1 μg/mice/day). An ethanol injection group was used as a control group. […] A protein sample (35 μg) was applied to 12% SDS-PAGE, transferred to a nitrocellulose film (Amersham Bioscience, Westborough, Mass., USA), detected with a primary antibody, followed by probing with a secondary antibody and another secondary antibody conjugated with horseradish […] (Santa Cruz Biotechnology). The sample was detected by ECL kit. The present inventors have assessed PDX effects upon lipid accumulation in a mouse. For this purpose, a liver cut section from a mouse was subjected to histological assay and western-blot assay through H&E staining and Oil-Red-O staining, while TG accumulation was measured using a TG analysis kit.

Test [2] deals with SREBP1, FAS and SCD1. As to the kind of experiment: Western-blot assay of adipogenesis-related genes in livers of HFD mice. The note with it: PDX i.p. 1 μg/mice/day for 8 weeks, vs HFD, FIG. 5B. Type of test: in vivo, mouse. Here is the method:
as §3

A further test has as its system ORP150. The test is described as follows: Western-blot assay of ORP150 expression in livers of HFD mice. The following applies: PDX i.p. 1 μg/mice/day for 8 weeks, FIG. 5D. Type of test: in vivo, mouse. Here is the method: as §3

For the compound `CC/C=C\C[C@H](O)/C=C/C=C\C=C\[C@@H](O)C/C=C\C/C=C\CCC(=O)O` [PDX, 10S,17S-dihydroxy-docosa-4Z,7Z,11E,13Z,15E,19Z-hexaeonic acid], in the test on adiponectin, the “level of adiponectin in blood serum” value is reported as “increased”. For the same compound, the “expression of adipogenesis-related genes including SREBP1, FAS and SCD1” value in the test with SREBP1, FAS and SCD1 [1] (24 hours, FIG. 1B) is “inhibited”. Further, the “expression of adipogenesis-related genes SREBP1, FAS and SCD1” value in the test with SREBP1, FAS and SCD1 [1] (scramble siRNA, PDX administration, FIG. 2C) is on record as “inhibited”. Further, the “PDX effects of inhibiting the expression of adipogenesis-related genes” value in the test with SREBP1, FAS and SCD1 [1] (silencing ORP150, FIG. 2C) is on record as “significantly reduced”. Further, the “palmitate-induced TG accumulation” value in the test on HepG2 cells (200 μM palmitate, PDX 0 to 2 μm, 24 hours, FIG. 1A) is given as “inhibited”; with HepG2 cells (scramble siRNA, PDX administration, FIG. 2B) it was “inhibited”. The “TG accumulation inhibitory effects of PDX” value in the test with HepG2 cells (palmitate, silencing ORP150, FIG. 2B) is “reduced”. Moreover, in the test on IRE-1, eIF2α and CHOP, the “liver ER stress markers IRE-1, eIF2α and CHOP” value is recorded as “inhibited”. Further, the “expression of adipogenesis-related genes SREBP1, FAS and SCD1 in the liver” value in the test with SREBP1, FAS and SCD1 [2] was “significantly reduced”. The “ORP150 expression suppressed in the liver by HFD” value in the test with ORP150 is “remarkably recovered”.
